In patent US20120027905A1, “POLYENE ANTIFUNGAL COMPOSITIONS” (DSM IP ASSETS B.V., priority 2009, published 2012):

Tests used:
most fungi = conditions: for most fungi; cited from earlier work
[1] = system: Botrytis cinerea (ATCC 12481); assay: Antifungal efficacy of natamycin/thickener compositions on strawberries; type: in vivo; conditions: after 6 days of storage at room temperature; 0.6% (w/v) thickening agent, 1000 μg/ml natamycin; B. cinerea
Description: In this experiment the antifungal activity of antimicrobial compositions comprising natamycin and the above-mentioned thickening agents was examined on strawberries. Compositions containing thickening agents and the antifungal agent natamycin were prepared as described in Example 1. The compositions comprised a final concentration of 0.6% (w/v) thickening agent and 1000 μg/ml natamycin. Fresh untreated strawberries from a local retailer in The Netherlands were artificially contaminated with 5 μl of a freshly prepared concentrated suspension of spores (10^6 spores/ml) of the mould species Botrytis cinerea (ATCC 12481). The mould spores were prepared using well-known methods. One hour after contamination the strawberries were dipped for one minute into the freshly prepared antimicrobial compositions, dripped off and dried to the air. The experiment was executed in ninefold. The strawberries were stored for 6 days under the conditions as described in Example 1 and were judged visually on mould development.

[2] = system: Aspergillus ochraceus (ATCC 60532); assay: Antifungal efficacy of natamycin/thickener compositions on fresh coffee beans; type: in vivo; conditions: after 4 days of storage at room temperature; 0.6% (w/v) thickening agent, 1000 μg/ml natamycin; A. ochraceus
Description: In this experiment the antifungal activity of the antimicrobial compositions comprising natamycin and the above-mentioned thickening agents was examined on fresh coffee beans. Compositions containing thickening agents and the antifungal agent natamycin were prepared as described in Example 1. The compositions comprised a final concentration of 0.6% (w/v) thickening agent and 1000 μg/ml natamycin. Fresh untreated coffee beans from a local retailer in The Netherlands were artificially contaminated with 5 μl of a freshly prepared concentrated suspension of spores (10^6 spores/mil) of the mould Aspergillus ochraceus (ATCC 60532). The mould spores were prepared using well-known methods. One hour after contamination the coffee beans were dipped for one minute into the freshly prepared antimicrobial compositions, dripped off and dried to the air. The experiment was executed in ninefold. The coffee beans were stored for 4 days under the conditions as described in Example 1 and were judged visually on mould development.

[3] = cited from earlier work
[4] = system: Penicillium italicum (ATCC 36041); assay: Antifungal efficacy of natamycin/thickener compositions on wounded oranges (dip treatment); type: in vivo; conditions: after 23 days of storage at room temperature; 0.2% (w/v) thickening agent, 1000 μg/ml natamycin; dipped one minute, P. italicum
Description: In a further experiment the antifungal activity of antimicrobial compositions comprising 1000 μg/ml natamycin and 0.2% (w/v) of the thickening agents described above was examined on oranges. The oranges were obtained from a local retailer in The Netherlands. The oranges were treated with spores of the mould Penicillium italicum (ATCC 36041). The mould spores were obtained using well-known methods. The oranges were injured according to the method described by Lapere de Bellaire and Dubois (see Plant disease 81:1378-1383, ([…])). Oranges were wounded three times using a cork borer followed by contamination per wound with 5 μl of a P. italicum spore suspension containing 10^6 spores/ml. After incubation for 1 hour at room temperature, the oranges were dipped for one minute into the freshly prepared antimicrobial compositions, dripped off and dried to the air. The experiment was executed in ninefold. The oranges were stored for 23 days under the conditions as described above and were judged visually on mould development.

## C[C@@H]1C/C=C/C=C/C=C/C=C/[C@H](O[C@@H]2O[C@H](C)[C@@H](O)[C@H](N)[C@@H]2O)C[C@@H]2O[C@](O)(C[C@@H](O)C[C@H]3O[C@@H]3/C=C/C(=O)O1)C[C@H](O)[C@H]2C(=O)O [Natamycin, natamycin]
Most fungi
  MIC (Minimal Inhibitory Concentration): less than 10 mg/l
[1]
  Moulded strawberries of the total of 9: 6
[2]
  Moulded coffee beans of the total of 9: 9
[3]
  solubility in water: 30 to 50 µg/mL
[4]
  Moulded orange wounds (total amount of wounds is 9): 9
